Reference: US10596172B2 (Celgene CAR LLC, priority 2008, dated 2020)
pIC50: −log10 of the molar value. Like-named read-outs stand apart in the source and are kept apart here.

Assays:
[1] = target: T1, JAK3 (Homo sapiens (Human), UniProt P52333); assay: Omnia assay for potency assessment against the active form of JAK3; format: biochemical; conditions: read-out: JAK3 Inhibition
[2] = target: TEC kinase (Homo sapiens (Human), UniProt P42680); assay: Mass spectrometry for TEC kinase (tryptic digest); format: binding; conditions: 3 hrs at 10x excess
Chain of TEC kinase (P42680 whole entry): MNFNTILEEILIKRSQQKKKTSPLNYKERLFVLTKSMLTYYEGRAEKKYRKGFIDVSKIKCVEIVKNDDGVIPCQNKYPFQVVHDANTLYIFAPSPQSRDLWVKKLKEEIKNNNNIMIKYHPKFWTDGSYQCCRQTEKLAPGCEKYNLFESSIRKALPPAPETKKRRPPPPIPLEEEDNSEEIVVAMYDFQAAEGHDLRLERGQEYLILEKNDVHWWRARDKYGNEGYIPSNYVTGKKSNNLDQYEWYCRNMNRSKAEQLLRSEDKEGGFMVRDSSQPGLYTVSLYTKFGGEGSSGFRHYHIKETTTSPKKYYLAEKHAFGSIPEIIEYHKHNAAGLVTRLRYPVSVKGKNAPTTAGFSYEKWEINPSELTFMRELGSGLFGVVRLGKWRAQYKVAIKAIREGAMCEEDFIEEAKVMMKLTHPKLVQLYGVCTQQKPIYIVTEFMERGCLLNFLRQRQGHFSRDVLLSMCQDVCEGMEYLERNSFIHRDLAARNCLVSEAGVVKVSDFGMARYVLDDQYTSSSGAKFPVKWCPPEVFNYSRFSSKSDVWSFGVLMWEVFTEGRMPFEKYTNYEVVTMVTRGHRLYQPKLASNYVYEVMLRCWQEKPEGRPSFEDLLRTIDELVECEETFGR
Description: (§1) TEC kinase (45 pmols; Invitrogen) was incubated with (I-2) (450 pmols) for 3 hrs at 10× excess prior to tryptic digestion. Iodoacetamide was used as the alkylating agent after compound incubation. […] For tryptic digests a 5 ul aliquot (7.5 pmols) was diluted with 15 ul of 0.1% TFA prior to micro C18 Zip Tipping directly onto the MALDI target using alpha cyano-4-hydroxy cinnamic acid as the matrix (5 mg/ml in 0.1% TFA:Acetonitrile 50:50).
As depicted in FIG. 6, the expected peptide ([…]) to be modified was immediately evident after reaction with I-2 (MI mass of 359.17 Da) at MH+ of 1294.72. The peptide was also quite evident in the control sample as modified by Iodacetamide at MH+ of 992.56. […] There was no evidence of other modified peptides.
For tryptic digests the instrument was set in Reflectron mode with a pulsed extraction setting of 2200. Calibration was done using the Laser Biolabs Pep Mix standard ([…], 1296.69, 1672.92, 2093.09, 2465.20). For CID/PSD analysis the peptide was selected using cursors to set ion gate timing and fragmentation occurred at a laser power about 20% higher and He was used as the collision gas for CID. Calibration for fragments was done using the P14R fragmentation calibration for the Curved field Reflectron.
as §1, with “(I-4)” for “(I-2)”
As depicted in FIG. 7, the expected peptide ([…]) to be modified was immediately evident at MH+ of 1355.72. This is the mass to be expected when compound I-4, with an adduct mass of 420.21, is added to the peptide mass of 935.51. The peptide was also quite evident in the control sample as modified by Iodacetamide at MH^+ of 992.56. […] There was no evidence of other modified peptides. […]

[3] = target: T2, BTK (Homo sapiens (Human), UniProt Q06187); assay: Washout experiment with Ramos cells; format: cell-based; conditions: 100 nM compound 1 hour, then washout
T2 sequence (Q06187 whole entry): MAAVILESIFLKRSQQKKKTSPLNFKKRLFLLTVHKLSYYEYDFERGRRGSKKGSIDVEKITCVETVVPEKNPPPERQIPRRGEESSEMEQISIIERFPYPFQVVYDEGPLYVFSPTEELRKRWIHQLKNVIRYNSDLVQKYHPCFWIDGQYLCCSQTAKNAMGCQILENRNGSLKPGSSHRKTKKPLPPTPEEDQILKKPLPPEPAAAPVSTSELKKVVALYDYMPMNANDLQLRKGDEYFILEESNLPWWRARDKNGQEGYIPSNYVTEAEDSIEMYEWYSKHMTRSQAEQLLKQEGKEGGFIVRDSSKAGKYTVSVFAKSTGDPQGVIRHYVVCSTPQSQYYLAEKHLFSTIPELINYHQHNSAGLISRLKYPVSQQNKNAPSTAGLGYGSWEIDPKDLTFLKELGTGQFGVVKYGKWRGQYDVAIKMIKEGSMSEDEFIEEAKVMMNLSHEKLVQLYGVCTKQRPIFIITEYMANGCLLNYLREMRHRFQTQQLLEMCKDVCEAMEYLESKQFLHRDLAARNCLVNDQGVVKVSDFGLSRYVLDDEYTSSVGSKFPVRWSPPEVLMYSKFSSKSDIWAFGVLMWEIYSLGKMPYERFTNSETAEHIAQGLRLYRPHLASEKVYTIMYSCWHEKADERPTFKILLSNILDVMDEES
Description: Ramos cells were serum starved for one hour in RPMI media +1% glutamine at 37° C. After starvation, Ramos cells were treated with 100 nM compound diluted in serum free RPMI media for 1 hour. After compound treatment, the media was removed and cells were washed with compound-free media. Subsequently, Ramos cells were washed every 2 hours and resuspended in fresh compound-free media. Cells were collected at specified timepoints, treated with 1 ug anti-human IgM (Southern Biotech cat #2022-01) for 10 minutes on ice to induce BCR signaling and then washed in PBS. Ramos cells were then lysed in Cell Extraction Buffer (Invitrogen FNN0011) supplemented with Roche complete protease inhibitor tablets (Roche 11697498001) and phosphatase inhibitors (Roche 04 906 837 001) and 18 ug total protein lysate was loaded in each lane. Inhibition of BTK kinase activity was assayed by measuring its substrate (PLCγ2) phosphorylation by western blot with phospho-specific antibodies from Cell Signaling Technologies cat #3871. The results of this experiment with compounds I-2, I-4 and I-7 are depicted in FIGS. 1, 2 and 3.

[4] = test system: B cell lymphoma cell lines; assay: B cell lymphoma proliferation assay; format: cell-based
[5] = target: EGFR-WT (Homo sapiens (Human), UniProt P00533); assay: Omnia assay for potency assessment against EGFR (WT); format: biochemical; conditions: wild-type EGFR; read-out: EGFR Wild Type Inhibition
Chain of EGFR-WT (P00533 25-1210): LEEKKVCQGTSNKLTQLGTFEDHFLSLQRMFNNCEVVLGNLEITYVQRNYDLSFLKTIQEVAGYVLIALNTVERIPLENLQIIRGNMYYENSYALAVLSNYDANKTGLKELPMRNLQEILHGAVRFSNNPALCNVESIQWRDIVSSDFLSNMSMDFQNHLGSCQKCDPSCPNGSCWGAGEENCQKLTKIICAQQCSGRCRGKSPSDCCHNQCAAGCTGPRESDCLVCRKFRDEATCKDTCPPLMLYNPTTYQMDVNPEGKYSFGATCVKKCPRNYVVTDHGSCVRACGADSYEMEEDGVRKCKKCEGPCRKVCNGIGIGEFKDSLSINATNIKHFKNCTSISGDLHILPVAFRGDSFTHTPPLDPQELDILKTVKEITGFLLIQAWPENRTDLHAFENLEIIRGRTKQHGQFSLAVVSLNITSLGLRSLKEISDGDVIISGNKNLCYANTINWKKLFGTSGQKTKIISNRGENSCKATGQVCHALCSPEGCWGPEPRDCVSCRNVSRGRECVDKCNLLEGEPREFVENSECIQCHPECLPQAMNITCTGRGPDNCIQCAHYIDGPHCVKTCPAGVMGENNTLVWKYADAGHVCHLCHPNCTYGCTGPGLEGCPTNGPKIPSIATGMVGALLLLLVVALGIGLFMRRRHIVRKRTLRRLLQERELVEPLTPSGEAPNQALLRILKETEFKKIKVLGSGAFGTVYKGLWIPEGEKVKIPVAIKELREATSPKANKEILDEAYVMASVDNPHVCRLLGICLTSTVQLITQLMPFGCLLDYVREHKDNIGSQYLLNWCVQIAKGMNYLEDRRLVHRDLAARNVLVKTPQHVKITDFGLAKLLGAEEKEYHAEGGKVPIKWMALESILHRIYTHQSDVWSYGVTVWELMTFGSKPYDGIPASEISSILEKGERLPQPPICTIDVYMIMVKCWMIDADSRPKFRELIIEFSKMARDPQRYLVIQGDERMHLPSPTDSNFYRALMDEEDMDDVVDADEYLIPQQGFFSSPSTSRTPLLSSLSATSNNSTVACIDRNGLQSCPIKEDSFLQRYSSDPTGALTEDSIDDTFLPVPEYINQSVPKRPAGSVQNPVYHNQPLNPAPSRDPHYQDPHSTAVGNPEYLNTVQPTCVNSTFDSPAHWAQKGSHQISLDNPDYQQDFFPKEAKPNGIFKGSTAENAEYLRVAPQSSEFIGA

[6] = target: T2, BTK; assay: Omnia assay for potency assessment against BTK; format: biochemical; conditions: [BTK]=5 nm; read-out: BTK Inhibition
Description: Omnia Assay Protocol for Potency Assessment Against BTK
The modified BTK-optimized reagent conditions for the above protocol are:
[BTK]=5 nm, [ATP]=40 mM, [Y5-Sox]=10 mM (ATP KMapp˜36 mM).

[7] = target: ITK (Homo sapiens (Human), UniProt Q08881); assay: Omnia assay for potency assessment against active forms of ITK kinase; format: biochemical; conditions: [ITK]=10 nM, [ATP]=25 μM, [Y6-Sox]=10 μM; read-out: ITK Inhibition
Chain of ITK (Q08881 whole entry): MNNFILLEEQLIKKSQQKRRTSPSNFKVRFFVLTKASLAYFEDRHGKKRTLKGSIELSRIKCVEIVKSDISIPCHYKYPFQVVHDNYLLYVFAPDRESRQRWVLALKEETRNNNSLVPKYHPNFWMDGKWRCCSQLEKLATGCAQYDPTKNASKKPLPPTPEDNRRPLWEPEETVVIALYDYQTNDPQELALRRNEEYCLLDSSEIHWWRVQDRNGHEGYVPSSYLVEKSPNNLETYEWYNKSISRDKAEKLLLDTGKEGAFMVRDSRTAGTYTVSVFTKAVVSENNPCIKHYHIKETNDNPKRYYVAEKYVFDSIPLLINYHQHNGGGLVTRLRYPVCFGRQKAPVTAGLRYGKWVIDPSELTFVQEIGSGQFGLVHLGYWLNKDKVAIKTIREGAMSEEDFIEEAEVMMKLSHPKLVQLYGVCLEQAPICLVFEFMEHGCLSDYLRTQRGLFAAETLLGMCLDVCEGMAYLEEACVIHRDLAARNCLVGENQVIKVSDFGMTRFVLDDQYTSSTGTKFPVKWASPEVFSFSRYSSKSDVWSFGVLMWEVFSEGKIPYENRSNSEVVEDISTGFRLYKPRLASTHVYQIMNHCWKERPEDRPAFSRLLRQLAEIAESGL
Description: [ITK]=10 nM, [ATP]=25 μM, [Y6-Sox]=10 μM (ATP KMapp=33 μM).

[8] = target: T2, BTK; assay: BTK Ramos cellular assay (phosphorylation of BTK substrate PLCγ2); format: cell-based; conditions: Ramos cells, compound 1 hour, anti-human IgM stimulation, read-out: BTK Inhibition (BTK Ramos Cellular Inhibition Data)
Description: Ramos cells were grown in suspension in T225 flasks, spun down, resuspended in 50 ml serum-free media and incubated for 1 hour. […] Ramos cells were incubated with compound for 1 hour, washed again and resuspended in 100 ul serum-free media. Cells were then stimulated with 1 μg of goat F(ab′)2 Anti-Human IgM and incubated on ice for 10 minutes to activate B cell receptor signaling pathways. After 10 minutes, the cells were washed once with PBS and then lysed on ice with Invitrogen Cell Extraction buffer. 16 μg total protein from lysates were loaded on gel and blots were probed for phosphorylation of the BTK substrate PLCγ2.

[9] = target: Erbb4 kinase domain (Homo sapiens (Human), UniProt Q15303); assay: Mass spectrometry for ERBB4; format: binding; conditions: 60 minutes at 10-fold excess of compound
Chain of Erbb4 kinase domain (Q15303 718-985): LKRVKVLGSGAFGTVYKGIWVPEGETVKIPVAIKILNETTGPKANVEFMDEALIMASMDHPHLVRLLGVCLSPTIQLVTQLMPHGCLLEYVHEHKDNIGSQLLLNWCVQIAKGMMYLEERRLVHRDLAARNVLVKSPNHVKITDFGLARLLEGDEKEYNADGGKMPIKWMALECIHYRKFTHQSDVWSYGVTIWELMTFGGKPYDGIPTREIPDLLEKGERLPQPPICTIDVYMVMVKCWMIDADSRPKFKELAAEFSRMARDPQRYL
Description: Erbb4 kinase domain (Upstate) was incubated with compound for 60 minutes at 10-fold excess of compound I-4 and I-11 to protein. 1 μl aliquots of the samples (total volume of 4.24 ul) were diluted with 10 μl of 0.1% TFA prior to micro C4 ZipTipping directly onto the MALDI target using Sinapinic acid as the desorption matrix (10 mg/ml in 0.1% TFA:Acetonitrile 50:50). For intact protein mass measurement the instrument was set in Linear mode using a pulsed extraction setting of 16,952 for the myoglobin standard used to calibrate the instrument (Shimadzu Axima TOF^2).
Intact ErbB4 protein occurs at MH+ of 35850 with corresponding sinapinic (matrix) adducts occurring about 200 Da higher. A stoichiometric incorporation of the test compound (I-4 and I-11) (Mw of 410 Da) produced a new mass peak which is approximately 410 Da higher (MH+ of 36260).

[10] = target: T1, JAK3; assay: Mass spectrometry for Janus-3 kinase (JAK3); format: binding; conditions: 3 hrs at 10x excess, tryptic digest
Description: JAK3 kinase (33 pmols; Invitrogen) was incubated with (I-7) (327 pmols) for 3 hrs at 10× excess prior to tryptic digestion. Iodoacetamide was used as the alkylating agent after compound incubation. For tryptic digests a 5 ul aliquot (5.5 pmols) was diluted with 15 ul of 0.1% TFA prior to micro C18 Zip Tipping directly onto the MALDI target using alpha cyano-4-hydroxy cinnamic acid as the matrix (5 mg/ml in 0.1% TFA:Acetonitrile 50:50).
As depicted in FIG. 11, the expected peptide ([…]) to be modified was immediately evident as the largest peak at MH+ of 1725.88. This is the mass to be expected when compound I-7, with an adduct mass of 345.16, is added to the peptide mass of 1380.70. […] There was also evidence for a number of other modified peptides, however, their signals were low.
To further verify the presence of the modified peptides with compound I-7, the peptides at MH+ of 1725.88 and 1118.55 were subjected to PSD (MS/MS) analysis. A correlational analysis with the homo sapien database identified the correct peptides as being modified by I-7.
For tryptic digests the instrument was set in Reflectron mode with a pulsed extraction setting of 2200. Calibration was done using the Laser Biolabs Pep Mix standard ([…], 1296.69, 1672.92, 2093.09, 2465.20). […]

[11] = Homo sapiens, DOHH-2, DOHH2 B cell lymphoma cell line, read-out: EC50 (μM) DOHH2

T1 sequence (P52333 whole entry): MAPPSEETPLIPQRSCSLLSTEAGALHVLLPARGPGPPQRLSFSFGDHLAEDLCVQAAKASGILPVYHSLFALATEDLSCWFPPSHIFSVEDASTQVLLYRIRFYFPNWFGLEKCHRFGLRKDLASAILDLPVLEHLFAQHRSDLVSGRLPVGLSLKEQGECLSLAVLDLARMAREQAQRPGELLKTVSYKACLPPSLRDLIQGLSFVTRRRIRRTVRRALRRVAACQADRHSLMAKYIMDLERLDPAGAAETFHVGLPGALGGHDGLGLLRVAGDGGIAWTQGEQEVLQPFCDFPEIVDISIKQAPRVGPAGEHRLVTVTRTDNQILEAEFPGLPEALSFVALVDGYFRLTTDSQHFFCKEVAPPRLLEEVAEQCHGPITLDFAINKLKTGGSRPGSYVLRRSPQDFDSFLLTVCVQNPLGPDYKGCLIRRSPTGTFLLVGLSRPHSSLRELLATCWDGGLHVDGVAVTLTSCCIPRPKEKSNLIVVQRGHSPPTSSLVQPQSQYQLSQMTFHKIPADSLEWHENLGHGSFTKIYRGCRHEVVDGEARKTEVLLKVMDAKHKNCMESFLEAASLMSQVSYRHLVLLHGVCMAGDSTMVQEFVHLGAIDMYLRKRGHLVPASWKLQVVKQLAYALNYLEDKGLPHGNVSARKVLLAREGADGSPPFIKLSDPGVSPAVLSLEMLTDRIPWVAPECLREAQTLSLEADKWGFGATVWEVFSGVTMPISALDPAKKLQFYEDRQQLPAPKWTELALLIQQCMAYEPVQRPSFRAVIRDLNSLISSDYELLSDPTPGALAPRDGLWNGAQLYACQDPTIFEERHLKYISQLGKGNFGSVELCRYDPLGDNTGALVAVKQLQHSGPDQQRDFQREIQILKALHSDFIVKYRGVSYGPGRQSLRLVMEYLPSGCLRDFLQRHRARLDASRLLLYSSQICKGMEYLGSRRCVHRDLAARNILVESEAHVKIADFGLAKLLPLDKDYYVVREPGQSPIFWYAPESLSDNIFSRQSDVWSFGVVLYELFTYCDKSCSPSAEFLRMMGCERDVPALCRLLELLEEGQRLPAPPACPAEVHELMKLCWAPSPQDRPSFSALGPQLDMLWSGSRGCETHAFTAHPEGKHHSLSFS

Row | SMILES | pIC50 [1] | covalent modification of TEC kinase peptide GCLLNFLR (Cys449) by mass spectrometry [2] | BTK Inhibition Type [3] | EC50 [4, 11] [µM] | pIC50 [5] | pIC50 [6] | pIC50 [7] | pIC50 [8] | EC50 ([4]; DHL4 B cell lymphoma cell line, read-out: EC50 (μM) DHL4) [µM] | EC50 ([4]; Homo sapiens, WSUDLCL2, WSU-DLCL2 B cell lymphoma cell line, read-out: EC50 (μM) WSU-DLCL2) [µM] | covalent modification of ErbB4 by mass spectrometry [9] | covalent modification of JAK3 peptide LVMEYLPSGCLR (Cys909) by mass spectrometry [10]
1 | C=CC(=O)Nc1cccc(Nc2ncc(C)c(Nc3cccc(C)c3)n2)c1 [Compound I-2, N-(3-(5-methyl-4-(m-tolylamino)pyrimidin-2-ylamino)phenyl)acrylamide] | > 8.00 | reaction was complete | irreversible | 0.1 to 1 |  |  |  |  |  |  |  | 
2 | C=CC(=O)Nc1cccc(Oc2nc(Nc3cccc(OC)c3)ncc2C(N)=O)c1 [Compound I-178, 4-(3-acrylamidophenoxy)-2-(3-methoxyphenylamino)pyrimidine-5-carboxylic Acid Amide] |  |  |  | 1 to 10 | > 8.00 | > 8.00 | 7.00 to 8.00 | 7.00 to 8.00 | > 10 | > 10 |  | 
3 | Cc1cnc(Nc2cccc(S(N)(=O)=O)c2)nc1Nc1ccc2c(c1)CCN(C(=O)CCl)C2 [Compound I-11, 3-(4-(2-(2-chloroacetyl)-1,2,3,4-tetrahydroisoquinolin-6-ylamino)-5-methylpyrimidin-2-ylamino)benzenesulfonamide] | > 8.00 |  |  |  |  |  |  |  |  |  | covalent modification | measurable modification

Next, values leading:

Row | pIC50 [1] | covalent modification of TEC kinase peptide GCLLNFLR (Cys449) by mass spectrometry [2] | BTK Inhibition Type [3] | EC50 [4, 11] [µM] | pIC50 [5] | pIC50 [6] | pIC50 [7] | pIC50 [8] | EC50 ([4]; DHL4 B cell lymphoma cell line, read-out: EC50 (μM) DHL4) [µM] | EC50 ([4]; Homo sapiens, WSUDLCL2, WSU-DLCL2 B cell lymphoma cell line, read-out: EC50 (μM) WSU-DLCL2) [µM] | covalent modification of ErbB4 by mass spectrometry [9] | covalent modification of JAK3 peptide LVMEYLPSGCLR (Cys909) by mass spectrometry [10] | SMILES
4 |  |  |  |  | 6.00 to 7.00 | > 8.00 | 6.00 to 7.00 | 6.00 to 7.00 |  |  |  |  | C=CC(=O)N1CCC[C@@H](Oc2nc(Nc3ccc(OC)nc3)ncc2F)C1 [Compound I-180, (R)-1-(3-(5-fluoro-2-(6-methoxypyridin-3-ylamino)pyrimidin-4-yloxy)piperidin-1-yl)prop-2-en-1-one]
5 |  |  |  |  | > 8.00 | > 8.00 | 7.00 to 8.00 | 6.00 to 7.00 |  |  |  |  | C=CC(=O)Nc1cccc(Oc2nc(Nc3cccc(OC)c3)ncc2C(=O)NC2CC2)c1 [Compound I-177, 4-(3-acrylamidophenoxy)-2-(3-methoxyphenylamino)-pyrimidine-5-carboxylic Acid Cyclopropylamide]
